Experimental data reported in the NIST ThermoML archive (doi:10.1021/je100679s).

Experiment: xn = mol fraction of the nth substance listed
Settings: 101 kPa, Liquid; for electrical conductivity: DDS-307 conductivity meter

CCCCCCn1cc[n+](C)c1C.O=S(=O)([N-]S(=O)(=O)C(F)(F)F)C(F)(F)F + COC(=O)OC
Settings	electrical conductivity [S/m]	mass density [kg/m3]
293.15 K, x1 = 0.0466	–	1120.02
293.15 K, x1 = 0.0774	–	1145.97
293.15 K, x1 = 0.1154	–	1173.26
293.15 K, x1 = 0.1633	–	1201.7
293.15 K, x1 = 0.2269	–	1231.14
293.15 K, x1 = 0.3131	–	1261.37
293.15 K, x1 = 0.4385	–	1292.48
293.15 K, x1 = 0.6368	–	1324.48
293.15 K, x1 = 0.7472	–	1337.22
293.15 K, x1 = 1	–	1358.19
298.15 K, x1 = 0.0466	0.34	1113.88
298.15 K, x1 = 0.0774	0.579	1140.01
298.15 K, x1 = 0.1154	0.755	1167.46
298.15 K, x1 = 0.1633	0.839	1195.92
298.15 K, x1 = 0.2269	0.813	1225.5
298.15 K, x1 = 0.3131	0.631	1255.94
298.15 K, x1 = 0.4385	0.509	1287.18
298.15 K, x1 = 0.6368	0.23	1319.32
298.15 K, x1 = 0.7472	0.164	1332.18
298.15 K, x1 = 1	0.108	1353.11
303.15 K, x1 = 0.0466	0.378	1107.71
303.15 K, x1 = 0.0774	0.649	1134.13
303.15 K, x1 = 0.1154	0.82	1161.84
303.15 K, x1 = 0.1633	0.893	1190.53
303.15 K, x1 = 0.2269	0.862	1220.22
303.15 K, x1 = 0.3131	0.689	1250.93
303.15 K, x1 = 0.4385	0.553	1282.32
303.15 K, x1 = 0.6368	0.296	1314.7
303.15 K, x1 = 0.7472	0.209	1327.65
303.15 K, x1 = 1	0.158	1348.71
308.15 K, x1 = 0.0466	0.416	1101.52
308.15 K, x1 = 0.0774	0.718	1128.2
308.15 K, x1 = 0.1154	0.884	1156.12
308.15 K, x1 = 0.1633	0.947	1185.04
308.15 K, x1 = 0.2269	0.91	1214.85
308.15 K, x1 = 0.3131	0.751	1245.85
308.15 K, x1 = 0.4385	0.61	1277.48
308.15 K, x1 = 0.6368	0.361	1310.14
308.15 K, x1 = 0.7472	0.275	1323.1
308.15 K, x1 = 1	0.213	1344.29
313.15 K, x1 = 0.0466	0.454	1096.1
313.15 K, x1 = 0.0774	0.788	1123
313.15 K, x1 = 0.1154	0.949	1151.09
313.15 K, x1 = 0.1633	1	1180.2
313.15 K, x1 = 0.2269	0.959	1210.16
313.15 K, x1 = 0.3131	0.812	1241.28
313.15 K, x1 = 0.4385	0.667	1272.94
313.15 K, x1 = 0.6368	0.433	1305.67
313.15 K, x1 = 0.7472	0.35	1318.62
313.15 K, x1 = 1	0.271	1339.88
318.15 K, x1 = 0.0466	0.492	1089.11
318.15 K, x1 = 0.0774	0.857	1116.3
318.15 K, x1 = 0.1154	1.01	1144.64
318.15 K, x1 = 0.1633	1.05	1174.05
318.15 K, x1 = 0.2269	1.01	1204.45
318.15 K, x1 = 0.3131	0.876	1235.85
318.15 K, x1 = 0.4385	0.706	1267.89
318.15 K, x1 = 0.6368	0.492	1300.91
318.15 K, x1 = 0.7472	0.399	1314.09
318.15 K, x1 = 1	0.319	1335.47
323.15 K, x1 = 0.0466	0.53	1082.85
323.15 K, x1 = 0.0774	0.927	1110.32
323.15 K, x1 = 0.1154	1.08	1138.89
323.15 K, x1 = 0.1633	1.11	1168.73
323.15 K, x1 = 0.2269	1.05	1199.16
323.15 K, x1 = 0.3131	0.933	1230.72
323.15 K, x1 = 0.4385	0.782	1263.01
323.15 K, x1 = 0.6368	0.548	1296.31
323.15 K, x1 = 0.7472	0.469	1309.51
323.15 K, x1 = 1	0.369	1331.06
328.15 K, x1 = 0.0466	0.568	1076.68
328.15 K, x1 = 0.0774	0.996	1104.42
328.15 K, x1 = 0.1154	1.14	1133.32
328.15 K, x1 = 0.1633	1.16	1163.27
328.15 K, x1 = 0.2269	1.1	1193.98
328.15 K, x1 = 0.3131	0.998	1225.63
328.15 K, x1 = 0.4385	0.834	1258.14
328.15 K, x1 = 0.6368	0.623	1291.79
328.15 K, x1 = 0.7472	0.537	1304.97
328.15 K, x1 = 1	0.426	1326.65
333.15 K, x1 = 0.0466	0.606	1070.28
333.15 K, x1 = 0.0774	1.07	1098.51
333.15 K, x1 = 0.1154	1.21	1127.61
333.15 K, x1 = 0.1633	1.22	1157.77
333.15 K, x1 = 0.2269	1.15	1188.58
333.15 K, x1 = 0.3131	1.07	1220.43
333.15 K, x1 = 0.4385	0.915	1253.16
333.15 K, x1 = 0.6368	0.686	1287.1
333.15 K, x1 = 0.7472	0.605	1300.47
333.15 K, x1 = 1	0.48	1322.24
